Tested on: Bleomycin-induced pulmonary fibrosis
Assay: Bleomycin-induced pulmonary fibrosis in mice
Format: in vivo, mouse
Settings: 30 mg/kg orally qd, relative to AM1476
Experimental: Pulmonary fibrosis was induced by a single intratracheal instillation of bleomycin (25 μg in 50 μL of 0.9% NaCl).[12] Treatment was initiated at two weeks after the first injection of bleomycin. AM1476 was administered orally at 1, 3, or 10 mg/kg once daily. Solvent (double‐distilled water) was used as a control, and nintedanib at 30 mg/kg orally every day (qd) was included as a comparator. The outcome was analyzed at two and four weeks after the first injection of bleomycin. Mice injected with 0.9% NaCl, the vehicle of bleomycin, served as nonfibrotic controls. Eight mice per group were analyzed.
Skin samples were fixed in 4% formalin for six hours and embedded in paraffin. Five‐micrometer sections were cut and stained with hematoxylin and eosin (H&E). The dermal thickness was quantified on H&E‐stained sections using images captured with a light microscope (Nikon eclipse 80i) at 100‐fold magnification by manually measuring the distance between the epidermal‐dermal junction and the dermal‐subcutaneous fat junction at four sites per mouse.[15], [16] For lung samples, the whole left lung was fixed in 4% formalin for six hours and embedded in paraffin. Five‐micrometer sections were cut and stained with trichrome and sirius red. Histologic readouts were evaluation of the fibrotic area as the percentage of the total lung area in sirius red–stained sections (two sections per mouse) and quantification of pulmonary changes using the Ashcroft score (four sections per mouse).[17], [18]
The amount of collagen protein in skin and lung samples was determined by hydroxyproline assay.[19], [20] After digestion in 6 M HCl for three hours at 120°C, the pH of the samples was adjusted to a pH range of 6–7 with 6 M NaOH. Afterward, 0.06 M chloramine T was added to each sample and incubated for 20 minutes at room temperature. Next, 3.15 M perchloric acid and 20% p‐dimethylaminobenzaldehyde were added, and samples were incubated for an additional 20 minutes at 60°C. The absorbance was determined at 557 nm with a Spectra MAX 190 microplate spectrophotometer. Absolute values were determined using a standard curved generated with type I collagen (Sigma‐Aldrich).

COC(=O)c1ccc2c(c1)NC(=O)/C2=C(\Nc1ccc(N(C)C(=O)CN2CCN(C)CC2)cc1)c1ccccc1 [nintedanib, reference compound]
antifibrotic effects across the different readouts: comparable

— article PMC12311259, “Antifibrotic effects of specific targeting of the 5‐hydroxytryptamine 2B receptor (5‐HT2BR) in murine models and ex vivo models of scleroderma skin” (Arthritis & Rheumatology (Hoboken, N.j.), 2025)
